Measurements reported in ChEMBL document CHEMBL5728311, “Benzyl phenyl ether derivative, preparation method therefor, and pharmaceutical composition and uses thereof” (2021).

Target: Programmed cell death protein 1/Programmed cell death 1 ligand 1 (Homo sapiens, UniProt Q15116+Q9NZQ7)
Experiment: In Vitro Activity Assay: 1) Principle: PD-1 protein is with HIS tag, and PD-1 ligand PD-L1 is with hFc tag. Eu labeled anti-hFc antibody and XL665 labeled anti-HIS antibody are combined with the above two label proteins respectively. After laser excitation, energy can be transferred from donor Eu to receptor XL665, allowing XL665 to glow. […] Reagents should be dispensed in the following order. For 384-well white ELISA plate, 2 μl of diluent or target compound diluted with diluent was added to each well, and then 4 μl of PD-1 protein and 4 μl of PD-L1 protein were added per well, incubated for 15 min at room temperature; and 10 μl of a mixture of anti-Tag1-Eu3+ and anti-Tag2-XL665 was added per well and incubated for 1 h to 4 h at room temperature and the fluorescence signals at 665 nm and 620 nm were measured with an Envison instrument. HTRF rate=(665 nm/620 nm)[…]. 8-10 concentrations were detected for each compound and IC50 was calculated by Graphpad software.
Format: protein-complex assay

Chain of Programmed cell death protein 1/Programmed cell death 1 ligand 1 (Q15116 whole entry): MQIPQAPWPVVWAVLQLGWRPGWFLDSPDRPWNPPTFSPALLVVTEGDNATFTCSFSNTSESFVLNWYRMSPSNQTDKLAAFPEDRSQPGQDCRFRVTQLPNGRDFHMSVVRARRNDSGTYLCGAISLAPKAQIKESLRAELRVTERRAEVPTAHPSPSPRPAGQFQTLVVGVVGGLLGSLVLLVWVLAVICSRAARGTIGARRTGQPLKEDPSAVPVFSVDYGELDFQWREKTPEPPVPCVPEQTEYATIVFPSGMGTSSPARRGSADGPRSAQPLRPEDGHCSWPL
Chain of Programmed cell death protein 1/Programmed cell death 1 ligand 1 (Q9NZQ7 whole entry): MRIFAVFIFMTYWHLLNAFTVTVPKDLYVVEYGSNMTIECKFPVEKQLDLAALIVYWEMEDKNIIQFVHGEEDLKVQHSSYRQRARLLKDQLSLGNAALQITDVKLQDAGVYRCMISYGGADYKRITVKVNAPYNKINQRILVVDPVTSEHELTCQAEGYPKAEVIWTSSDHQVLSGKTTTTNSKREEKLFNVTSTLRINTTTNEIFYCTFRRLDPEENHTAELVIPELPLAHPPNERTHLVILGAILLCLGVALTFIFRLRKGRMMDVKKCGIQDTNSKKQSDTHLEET

SMILES	IC50
N#Cc1cccc(COc2cc(OCc3cccc(-c4ccccc4)c3Br)ccc2CN2CCOCC2)c1	0.458 µM
CS(=O)(=O)NCCNCc1ccc(OCc2cccc(-c3ccccc3)c2Br)cc1OCc1cccc(C#N)c1	0.979 µM
N#Cc1cccc(COc2cc(OCc3cccc(-c4ccccc4)c3Br)c(Cl)cc2CNCCO)c1	0.00529 µM
